Data from patent US9365588B2, “Benzoxazines as modulators of ion channels” (Vertex Pharmaceuticals Incorporated, priority 2011, dated 2016).

Molecular target: human NaV 1.7 (Homo sapiens, UniProt Q15858)
Assay: E-VIPR optical membrane potential assay with electrical stimulation
Type: cell-based
Settings: sodium channel inhibition; read-out: Binned Activity Data (IC50)
Method in brief: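 Membrane-potential read-out: background-subtracted 460 nm/580 nm ratio during a 9 s current-controlled stimulus, 400 Hz scan. Before stimulation, NaV1.7-HEK cells carried coumarin/oxonol dye and compound (final DMSO 0.625%) for 20–35 min at room temperature; tetracaine 125 μM served as positive control.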

Chain of human NaV 1.7 (Q15858 whole entry): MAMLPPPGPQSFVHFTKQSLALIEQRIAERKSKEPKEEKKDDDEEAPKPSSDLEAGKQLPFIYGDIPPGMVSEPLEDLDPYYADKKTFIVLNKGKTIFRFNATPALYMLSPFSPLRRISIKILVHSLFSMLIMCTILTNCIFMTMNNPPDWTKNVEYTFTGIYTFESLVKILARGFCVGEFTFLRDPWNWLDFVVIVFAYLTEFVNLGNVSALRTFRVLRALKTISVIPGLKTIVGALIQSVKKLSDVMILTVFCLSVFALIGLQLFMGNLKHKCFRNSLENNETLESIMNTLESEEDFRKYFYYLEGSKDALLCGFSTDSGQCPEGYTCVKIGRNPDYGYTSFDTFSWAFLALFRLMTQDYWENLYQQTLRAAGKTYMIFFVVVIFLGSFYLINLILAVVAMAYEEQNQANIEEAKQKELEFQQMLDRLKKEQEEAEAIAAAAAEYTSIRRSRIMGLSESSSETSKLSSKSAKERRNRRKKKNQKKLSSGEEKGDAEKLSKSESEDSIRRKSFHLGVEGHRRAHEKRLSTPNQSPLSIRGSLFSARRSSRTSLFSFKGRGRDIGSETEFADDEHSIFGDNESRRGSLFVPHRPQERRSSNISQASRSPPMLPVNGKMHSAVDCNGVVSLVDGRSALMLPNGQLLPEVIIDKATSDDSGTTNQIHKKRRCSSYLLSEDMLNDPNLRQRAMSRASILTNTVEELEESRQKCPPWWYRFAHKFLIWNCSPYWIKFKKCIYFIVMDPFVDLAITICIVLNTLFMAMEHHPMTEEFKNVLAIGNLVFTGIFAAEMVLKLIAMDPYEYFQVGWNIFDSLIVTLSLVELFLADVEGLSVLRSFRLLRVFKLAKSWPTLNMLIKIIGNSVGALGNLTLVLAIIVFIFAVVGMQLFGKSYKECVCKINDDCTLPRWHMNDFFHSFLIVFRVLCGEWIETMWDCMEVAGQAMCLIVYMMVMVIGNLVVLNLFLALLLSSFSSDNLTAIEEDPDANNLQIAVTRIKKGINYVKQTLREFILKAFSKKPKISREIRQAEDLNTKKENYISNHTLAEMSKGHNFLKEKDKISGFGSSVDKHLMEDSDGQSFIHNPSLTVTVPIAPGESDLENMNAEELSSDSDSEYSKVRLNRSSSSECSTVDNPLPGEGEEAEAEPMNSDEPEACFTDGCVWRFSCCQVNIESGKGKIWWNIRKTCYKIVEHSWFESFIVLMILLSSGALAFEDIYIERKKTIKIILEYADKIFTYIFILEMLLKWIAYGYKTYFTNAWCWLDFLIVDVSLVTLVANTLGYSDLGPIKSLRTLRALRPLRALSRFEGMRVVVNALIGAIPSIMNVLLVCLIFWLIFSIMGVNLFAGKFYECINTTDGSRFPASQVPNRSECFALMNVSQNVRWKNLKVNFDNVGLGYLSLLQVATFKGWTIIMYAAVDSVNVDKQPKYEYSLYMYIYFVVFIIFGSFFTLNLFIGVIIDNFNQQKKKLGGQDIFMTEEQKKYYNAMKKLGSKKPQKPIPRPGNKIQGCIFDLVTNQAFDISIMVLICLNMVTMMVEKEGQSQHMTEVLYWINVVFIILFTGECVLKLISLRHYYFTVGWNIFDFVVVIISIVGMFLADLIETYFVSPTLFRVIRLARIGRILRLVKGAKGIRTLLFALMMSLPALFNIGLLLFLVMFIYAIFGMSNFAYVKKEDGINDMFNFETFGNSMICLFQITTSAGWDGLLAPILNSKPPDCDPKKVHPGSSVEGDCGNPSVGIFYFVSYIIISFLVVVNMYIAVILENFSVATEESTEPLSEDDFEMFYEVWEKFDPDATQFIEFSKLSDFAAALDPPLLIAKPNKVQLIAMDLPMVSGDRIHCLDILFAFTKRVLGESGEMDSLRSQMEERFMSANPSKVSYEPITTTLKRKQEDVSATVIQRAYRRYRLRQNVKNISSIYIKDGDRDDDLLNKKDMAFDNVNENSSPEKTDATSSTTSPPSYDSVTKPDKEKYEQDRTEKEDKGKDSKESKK

SMILES | IC50
Cn1cc2c(n1)-c1ccccc1OC21CCN(C(=O)c2ccc3nc(N)sc3c2)CC1 [Compound 325] | 2000 to 5000 nM
CC[C@H](C)Oc1ccc(C(=O)N2CCC3(CC2)Oc2ccccc2-n2cccc23)cc1OC [Compound 326] | ≤ 2000 nM
CC(C)(C)S(=O)(=O)c1ccc(C(=O)N2CCC3(CC2)Oc2ccccc2-n2cccc23)cc1 [Compound 327] | ≤ 2000 nM
COc1c(F)cccc1C(=O)N1CCC2(CC1)Oc1cc(Cl)ccc1-c1c2cnn1C [Compound 328] | ≤ 2000 nM
O=C(c1cccnc1Oc1ccccc1)N1CCC2(CC1)Oc1ccccc1-n1c(C(F)(F)F)ccc12 [Compound 330] | ≤ 2000 nM
Cn1ncc2c1-c1ccccc1OC21CCN(C(=O)c2csc(-c3ccccc3)n2)CC1 [Compound 331] | > 5000 nM
CN(C)CCOc1ccc(C(=O)N2CCC3(CC2)Oc2ccccc2-n2cccc23)cc1C(F)(F)F [Compound 333] | ≤ 2000 nM
CC(C)(Oc1ccc(C(=O)N2CCC3(CC2)Oc2ccccc2-n2c(C#N)ccc23)cc1)C(=O)O [Compound 334] | > 5000 nM
COc1cc(S(=O)(=O)C(C)C)ccc1C(=O)N1CCC2(CC1)Oc1ccccc1-c1c2cnn1C [Compound 336] | ≤ 2000 nM
O=C(c1ccccc1OC(F)F)N1CCC2(CC1)Oc1ccccc1-c1c2cnn1C(F)(F)F [Compound 337] | ≤ 2000 nM
Cc1cc(C(=O)N2CCC3(CC2)Oc2cc(C#N)ccc2-n2cccc23)ccc1OC(C)C [Compound 338] | ≤ 2000 nM
Cn1ncc2c1-c1cc(F)ccc1OC21CCN(C(=O)c2ccccc2OC(F)F)CC1 [Compound 340] | ≤ 2000 nM
O=C(c1ccc(OC(F)F)cc1)N1CCC2(CC1)Oc1ccccc1-n1c(C(F)(F)F)ccc12 [Compound 341] | > 5000 nM
COc1cc(C(=O)N2CCC3(CC2)Oc2ccccc2-n2cccc23)ccc1OC1CCCC1 [Compound 342] | ≤ 2000 nM
N#Cc1ccccc1C(=O)N1CCC2(CC1)Oc1cc(Cl)ccc1-n1cccc12 [Compound 343] | > 5000 nM
Cn1ncc2c1-c1ccccc1OC21CCN(C(=O)c2cccc3c2OC(F)(F)O3)CC1 [Compound 345] | ≤ 2000 nM
Cn1ncc2c1-c1ccccc1OC21CCN(C(=O)c2cccc3c2OCCO3)CC1 [Compound 346] | ≤ 2000 nM
CCc1ccc(C(=O)N2CCC3(CC2)Oc2ccccc2-n2c(C(F)(F)F)ccc23)cc1OC [Compound 347] | ≤ 2000 nM
COc1cc(C(=O)N2CCC3(CC2)Oc2cc(Cl)ccc2-n2cccc23)ccc1O[C@@H]1CCC[C@H]1O [Compound 348] | ≤ 2000 nM

SMILES | IC50
Cc1ccc(C(=O)N2CCC3(CC2)Oc2cc(F)ccc2-n2cccc23)cc1C [Compound 349] | ≤ 2000 nM
Cn1ncc2c1-c1ccccc1OC21CCN(C(=O)c2cccc3c2OC(C)(C)C3)CC1 [Compound 350] | ≤ 2000 nM
CCCOc1ccc(C(=O)N2CCC3(CC2)Oc2ccccc2-n2cccc23)cc1OC [Compound 352] | ≤ 2000 nM
COc1ccc(F)c(F)c1C(=O)N1CCC2(CC1)Oc1ccccc1-c1c2cnn1C [Compound 353] | > 5000 nM
COc1ccc(C(=O)N2CCC3(CC2)Oc2ccccc2-c2c3cnn2C)c(OC)c1OC [Compound 355] | ≤ 2000 nM
CC(=O)c1ccc2n1-c1ccccc1OC21CCN(C(=O)c2ccc(S(C)(=O)=O)c(C)c2)CC1 [Compound 357] | ≤ 2000 nM
COc1ccc(OC)c(C(=O)N2CCC3(CC2)Oc2ccccc2-c2c3cnn2C)c1 [Compound 358] | 2000 to 5000 nM
Cc1cc(C(=O)N2CCC3(CC2)Oc2ccccc2-n2c(C)ccc23)ccc1OC(C)C [Compound 359] | ≤ 2000 nM
CC(=O)c1ccc2n1-c1ccccc1OC21CCN(C(=O)c2ccccc2OC(F)F)CC1 [Compound 360] | ≤ 2000 nM
CCCOc1ccc(C(=O)N2CCC3(CC2)Oc2ccccc2-n2cccc23)cc1C#N [Compound 361] | ≤ 2000 nM
COc1cc(C(=O)N2CCC3(CC2)Oc2ccccc2-c2c3cnn2C)ccc1OCCC(C)C [Compound 362] | ≤ 2000 nM
Cc1cc(C(=O)N2CCC3(CC2)Oc2ccccc2-n2c(C#N)ccc23)ccc1S(=O)(=O)C(C)C [Compound 363] | ≤ 2000 nM
CC(C)(O)c1ccc(C(=O)N2CCC3(CC2)Oc2ccccc2-n2c(C#N)ccc23)cc1CO [Compound 364] | ≤ 2000 nM
COc1cc(C(=O)N2CCC3(CC2)Oc2cc(Cl)ccc2-n2cccc23)ccc1OC1CCC(O)C1 (centres unmarked) [Compound 366] | ≤ 2000 nM
O=C(c1cccc(C(F)(F)F)c1)N1CCC2(CC1)Oc1cc(Cl)ccc1-n1cccc12 [Compound 367] | ≤ 2000 nM
Cn1ncc2c1-c1ccccc1OC21CCN(C(=O)c2ccc3c(c2)C(C)(C)CO3)CC1 [Compound 369] | ≤ 2000 nM
Cc1cc(C(=O)N2CCC3(CC2)Oc2cc(Cl)ccc2-c2c3cnn2C)ccc1OC(C)C [Compound 370] | ≤ 2000 nM
CCn1ncc2c1-c1ccccc1OC21CCN(C(=O)c2ccc(C(C)(C)C)c(OC)c2)CC1 [Compound 372] | ≤ 2000 nM
COc1cc(C(=O)N2CCC3(CC2)Oc2cc(Cl)ccc2-n2cccc23)ccc1OCC(N)=O [Compound 373] | ≤ 2000 nM

SMILES | IC50
Cc1ccc2c(c1)OC1(CCN(C(=O)c3ccc(OC(C)C)c(CO)c3)CC1)c1ccc(C#N)n1-2 [Compound 375] | ≤ 2000 nM
CC(C)Oc1ccc(C(=O)N2CCC3(CC2)Oc2ccccc2-n2cccc23)cc1C(F)(F)F [Compound 376] | ≤ 2000 nM
CCc1ccc(C(=O)N2CCC3(CC2)Oc2cc(F)ccc2-n2cccc23)cc1C [Compound 377] | ≤ 2000 nM
COc1cc(C(=O)N2CCC3(CC2)Oc2cc(F)ccc2-n2cccc23)ccc1OCC(C)(C)OC [Compound 378] | ≤ 2000 nM
CC(=O)c1ccc2n1-c1ccccc1OC21CCN(C(=O)c2ccc(C(C)(C)O)cc2)CC1 [Compound 379] | ≤ 2000 nM
Cn1ncc2c1-c1ccccc1OC21CCN(C(=O)c2ccccc2OC(F)F)CC1 [Compound 381] | ≤ 2000 nM
Cn1ncc2c1-c1cc(F)ccc1OC21CCN(C(=O)c2ccccc2OC(F)(F)F)CC1 [Compound 382] | ≤ 2000 nM
COc1ccccc1C(=O)N1CCC2(CC1)Oc1ccc(F)cc1-c1c2cnn1C [Compound 383] | ≤ 2000 nM
COc1cnccc1C(=O)N1CCC2(CC1)Oc1ccccc1-c1c2cnn1C [Compound 384] | > 5000 nM
CCCOc1ccc(C(=O)N2CCC3(CC2)Oc2ccccc2-c2c3cnn2C)cc1C(F)(F)F [Compound 387] | ≤ 2000 nM
Cn1cc2c(n1)-c1ccccc1OC21CCN(C(=O)c2cccc(F)c2OC(F)F)CC1 [Compound 388] | ≤ 2000 nM
COCCOc1ccc(C(=O)N2CCC3(CC2)Oc2ccccc2-c2c3cnn2CC(F)(F)F)cc1OC [Compound 391] | 2000 to 5000 nM
COc1ccc(C(=O)N2CCC3(CC2)Oc2cc(Cl)ccc2-n2c(C#N)ccc23)cc1C(F)(F)F [Compound 392] | ≤ 2000 nM
Cc1nc2cccc(C(=O)N3CCC4(CC3)Oc3cc(Cl)ccc3-n3cccc34)c2o1 [Compound 393] | ≤ 2000 nM
CCc1ccc(C(=O)N2CCC3(CC2)Oc2ccccc2-n2cc(C)cc23)cc1OC [Compound 395] | ≤ 2000 nM
COc1cc(C(=O)N2CCC3(CC2)Oc2ccccc2-c2c3cnn2C)ccc1O [Compound 396] | ≤ 2000 nM
COc1cc(C(=O)N2CCC3(CC2)Oc2ccccc2-n2c(C#N)ccc23)ccc1OC[C@H](O)CO [Compound 398] | 2000 to 5000 nM
COc1cc(C(=O)N2CCC3(CC2)Oc2ccccc2-n2cccc23)ccc1C(C)(C)OC [Compound 399] | ≤ 2000 nM
